Values quoted from earlier work, collected in patent publication US11174243B2, “Succinate forms and compositions of Bruton's tyrosine kinase inhibitors” (Sunesis Pharmaceuticals, Inc., priority 2016, dated 2021).
Read-outs that look alike come from different tables or passages of the source.

Conditions: mean, cited from earlier work

Structure (SMILES)	AUC0-24 (100 mg BID (steady state))	Cmax (100 mg BID (steady state))	Cmax (560 mg (single dose))
CC#CC(=O)N1CCC[C@H]1c1nc(-c2ccc(C(=O)Nc3ccccn3)cc2)c2c(N)nccn12 [Acalabrutinib]	1.85 µg·h/mL	0.827 µg/mL	–
C=CC(=O)N1CCC[C@@H](n2nc(-c3ccc(Oc4ccccc4)cc3)c3c(N)ncnc32)C1 [Ibrutinib]	–	–	0.141 µg/mL
